# The supplement of paper PMC10307832
# What was measured:
# Experiment in all cases: relative viability (nuclei count vs DMSO), 5 days (fraction); higher = more cells survive
# Dovitinib + OSI-027 = compound: CN1CCN(c2ccc3nc(-c4c(N)c5c(F)cccc5[nH]c4=O)[nH]c3c2)CC1 [Dovitinib] + COc1cccc2cc(-c3nc([C@H]4CC[C@H](C(=O)O)CC4)n4ncnc(N)c34)[nH]c12 [OSI-027] (partner 0.5 µM)
# Procedure, shortened: (§1)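 After 5 days of treatment, lung cancer cells in 1536-well plates were fixed and stained in a single step (final 0.05% Triton X-100, 1% formaldehyde, 1 ug/ml Hoechst) and their nuclei counted on 4× images. Treatment had been applied by pin tool the day after seeding as one drug alone or as a fixed anchor-drug dose with five library-drug doses (not always all listed) in √10 steps. Relative viability is the nuclei count of treated wells divided by that of vehicle wells, and values are medians of duplicate plates.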
# Dovitinib + Trametinib = compound: CN1CCN(c2ccc3nc(-c4c(N)c5c(F)cccc5[nH]c4=O)[nH]c3c2)CC1 [Dovitinib] + CC(=O)Nc1cccc(-n2c(=O)n(C3CC3)c(=O)c3c(Nc4ccc(I)cc4F)n(C)c(=O)c(C)c32)c1 [Trametinib] (partner 0.02 µM)
# Procedure, shortened: as §1
# Dovitinib + Linsitinib = compound: CN1CCN(c2ccc3nc(-c4c(N)c5c(F)cccc5[nH]c4=O)[nH]c3c2)CC1 [Dovitinib] + C[C@]1(O)C[C@@H](c2nc(-c3ccc4ccc(-c5ccccc5)nc4c3)c3c(N)nccn32)C1 [Linsitinib] (partner 1 µM)
# Procedure, shortened: as §1
# Dovitinib + Lapatinib = compound: CN1CCN(c2ccc3nc(-c4c(N)c5c(F)cccc5[nH]c4=O)[nH]c3c2)CC1 [Dovitinib] + CS(=O)(=O)CCNCc1ccc(-c2ccc3ncnc(Nc4ccc(OCc5cccc(F)c5)c(Cl)c4)c3c2)o1 [Lapatinib] (partner 2 µM)
# Procedure, shortened: as §1
Cell Line,relative viability (Dovitinib + OSI-027; first compound 0.02 µM),relative viability (Dovitinib + OSI-027; first compound 0.06325 µM),relative viability (Dovitinib + OSI-027; first compound 0.2 µM),relative viability (Dovitinib + OSI-027; first compound 0.6325 µM),relative viability (Dovitinib + OSI-027; first compound 2 µM),relative viability (Dovitinib + Trametinib; first compound 0.02 µM),relative viability (Dovitinib + Trametinib; first compound 0.06325 µM),relative viability (Dovitinib + Trametinib; first compound 0.2 µM),relative viability (Dovitinib + Trametinib; first compound 0.6325 µM),relative viability (Dovitinib + Trametinib; first compound 2 µM),relative viability (Dovitinib + Linsitinib; first compound 0.02 µM),relative viability (Dovitinib + Linsitinib; first compound 0.06325 µM),relative viability (Dovitinib + Linsitinib; first compound 0.2 µM),relative viability (Dovitinib + Linsitinib; first compound 0.6325 µM),relative viability (Dovitinib + Linsitinib; first compound 2 µM),relative viability (Dovitinib + Lapatinib; first compound 0.02 µM),relative viability (Dovitinib + Lapatinib; first compound 0.06325 µM),relative viability (Dovitinib + Lapatinib; first compound 0.2 µM),relative viability (Dovitinib + Lapatinib; first compound 0.6325 µM),relative viability (Dovitinib + Lapatinib; first compound 2 µM)
NCI-H2023,0.429,0.404,0.476,0.394,0.362,0.549,0.493,0.405,0.5,0.537,0.744,0.638,0.734,0.741,0.595,0.778,0.739,1.13,0.918,0.808
NCI-H2085,0.672,0.71,0.734,0.829,0.839,0.534,0.628,0.599,0.528,0.627,0.927,1.08,1.07,0.913,0.917,0.834,0.785,0.723,0.894,0.818
NCI-H2087,0.57,0.487,0.757,0.484,0.554,0.274,0.221,0.251,0.196,0.214,0.953,0.943,1.09,1,0.825,0.893,0.958,1.01,1.02,1.16
NCI-H2126,0.74,–,0.855,0.699,0.638,0.576,0.56,0.569,0.598,0.522,0.697,0.691,0.748,0.747,0.696,0.692,0.726,0.744,0.734,0.797
NCI-H2228,0.638,0.533,0.512,0.681,0.635,0.652,0.467,0.454,0.507,0.488,0.789,0.632,0.669,0.967,0.633,1.18,0.942,0.991,1.08,0.831
NCI-H2347,0.568,0.265,0.471,0.545,0.529,0.284,0.289,0.286,0.277,0.271,0.997,0.892,0.953,0.978,0.969,0.588,0.882,1,0.924,0.967
NCI-H2405,0.627,0.594,0.591,0.656,0.692,0.757,0.56,0.692,0.597,0.738,0.954,0.873,0.971,0.873,1.05,1.1,0.946,1.04,1.09,1.35
NCI-H3122,1.02,0.959,1,0.876,0.915,0.217,0.226,0.231,0.234,0.248,1,0.95,1.07,1.1,0.991,0.996,1.01,0.967,1.05,1.02
